Results as given in patent publication US20080064663A1, “Melt processing of phosphoroamido(di)thioate insecticides” (priority 2006, published 2008).

Assay: Processing of acephate melt in oxygen free atmosphere: degradation
Format: physicochemical
Procedure: In some embodiments, the acephate-containing composition can be processed for more than 30 minutes without substantially any detectable degradation.

In the case of `COP(=O)(NC(C)=O)SC` (centres unmarked) [acephate], the “reduction of the acephate stability during storage” value (after processing in molten state at 90° C. to 100° C. for 15 to 30 minutes under an effectively oxygen free atmosphere) is reported as “without any reduction” and the “degradation of the acephate processed in a molten state” value (molten state at 90° C. to 100° C. for 15 minutes to 30 minutes under an effectively oxygen free atmosphere) is reported as “without substantial or detectable degradation”.
